Measurements reported in patent US8247211B2, “Glycopeptide antibiotics” (American Cyanamid Company, priority 2001, dated 2012).
Values after ≈ are worked out from the molar mass of the structure shown.

Assays:
Test in all cases: In vitro antibacterial evaluation: minimum inhibitory concentration (MIC), broth dilution method
Assay type in all cases: cell-based
[1] = tested on: Streptococcus sp.
How it was run: (§1)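 First, organisms are seeded at 5×10^5 CFU/mL into Muller-Hinton II […]. Next, antibiotic is applied across 64-0.06 μg/mL by broth dilution (NCCLS M7-A2). Finally, the lowest inhibitory concentration is recorded as MIC.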

[2] = tested on: Enterococcus sp.
How it was run: as §1

[3] = tested on: Staphylococcus sp.; conditions: broth dilution, 18 hours at 35° C.
How it was run: as §1

[4] = tested on: Escherichia coli
How it was run: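 Values are minimum inhibitory concentrations, meaning the smallest antibiotic concentration that stops growth of the organism. They come from broth dilution in Muller-Hinton II […] per NCCLS guidance (M7-A2), using 5×10^5 CFU/mL and concentrations from 64 to 0.06 μg/mL.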

[5] = broth dilution, inoculum 5×10^5 CFU/mL, 18 hours at 35° C.

In the case of `CC(C)=CCOc1cccc(C2OCC3OC(OC4C(CO)OC(Oc5ccc(CC6NC(=O)C(C(C)c7ccccc7)NC(=O)CNC(=O)C(CO)NC(=O)C(C(O)C7CNC(=N)N7C7OC(CO)C(O)C(O)C7O)NC(=O)C(C(O)C7CNC(=N)N7)NC6=O)cc5)C(O)C4O)C(O)C(O)C3O2)c1` (stereo not shown) [Example 165], the “MIC Streptococcus agalactiae (GC 4564)” value [1, 5] is reported as 1 µg/mL (≈ 0.681 µM), the “MIC Streptococcus pneumoniae (ATCC 6301)” value [1, 5] is reported as 0.12 µg/mL (≈ 0.0818 µM) and the “MIC Streptococcus pneumoniae (GC 1894)” value [1, 5] is reported as under 0.06 µg/mL. For the same compound, the “MIC Streptococcus pneumoniae (GC 4565)” value [1, 5] was 0.12 µg/mL (≈ 0.0818 µM), the “MIC Streptococcus pyogenes (GC 4563)” value [1, 5] was 0.12 µg/mL (≈ 0.0818 µM) and the “MIC Streptococcus pneumoniae (ATCC 6301)” value ([1]; strain ATCC 6301) was 0.12 µg/mL (≈ 0.0818 µM). For the same compound, the “MIC Streptococcus pneumoniae (GC 1894)” value ([1]; strain GC 1894) was under 0.06 µg/mL, the “MIC Streptococcus pyogenes (GC 4563)” value ([1]; strain GC 4563) was 0.12 µg/mL (≈ 0.0818 µM) and the “MIC Streptococcus agalactiae (GC 4564)” value ([1]; strain GC 4564) was 1 µg/mL (≈ 0.681 µM). For the same compound, the “MIC Streptococcus pneumoniae (GC 4565)” value ([1]; strain GC 4565) was 0.12 µg/mL (≈ 0.0818 µM), the “MIC Enterococcus avium (GC 4558)” value [2, 5] was 16 µg/mL (≈ 10.9 µM) and the “MIC Enterococcus faecalis (ATCC 29212)” value [2, 5] was 16 µg/mL (≈ 10.9 µM). The “MIC Enterococcus faecalis (GC 2242)” value [2, 5] was 16 µg/mL (≈ 10.9 µM), the “MIC Enterococcus faecalis (GC 2691)” value [2, 5] was 16 µg/mL (≈ 10.9 µM) and the “MIC Enterococcus faecalis (GC 3059)” value [2, 5] was 16 µg/mL (≈ 10.9 µM). For the same compound, the “MIC Enterococcus faecalis (GC 4552)” value [2, 5] was 16 µg/mL (≈ 10.9 µM), the “MIC Enterococcus faecalis (GC 4553)” value [2, 5] was 16 µg/mL (≈ 10.9 µM) and the “MIC Enterococcus faecalis (GC 4554)” value [2, 5] was 32 µg/mL (≈ 21.8 µM). For the same compound, the “MIC Enterococcus faecalis (GC 6189)” value [2, 5] was 16 µg/mL (≈ 10.9 µM), the “MIC Enterococcus faecium (GC 2243)” value [2, 5] was 16 µg/mL (≈ 10.9 µM) and the “MIC Enterococcus faecium (GC 4556)” value [2, 5] was 16 µg/mL (≈ 10.9 µM). The “MIC Enterococcus faecium (GC 4557)” value [2, 5] was 16 µg/mL (≈ 10.9 µM), the “MIC Enterococcus faecalis (ATCC 29212)” value ([2]; strain ATCC 29212) was 16 µg/mL (≈ 10.9 µM) and the “MIC Enterococcus faecalis (GC 2242)” value ([2]; strain GC 2242) was 16 µg/mL (≈ 10.9 µM). The “MIC Enterococcus faecium (GC 2243)” value ([2]; strain GC 2243) was 16 µg/mL (≈ 10.9 µM), the “MIC Enterococcus faecalis (GC 2691)” value ([2]; strain GC 2691) was 16 µg/mL (≈ 10.9 µM) and the “MIC Enterococcus faecalis (GC 3059)” value ([2]; strain GC 3059) was 16 µg/mL (≈ 10.9 µM). The “MIC Enterococcus faecalis (GC 4552)” value ([2]; strain GC 4552) was 16 µg/mL (≈ 10.9 µM), the “MIC Enterococcus faecalis (GC 4553)” value ([2]; strain GC 4553) was 16 µg/mL (≈ 10.9 µM) and the “MIC Enterococcus faecalis (GC 4554)” value ([2]; strain GC 4554) was 32 µg/mL (≈ 21.8 µM). The “MIC Enterococcus faecium (GC 4556)” value ([2]; strain GC 4556) was 16 µg/mL (≈ 10.9 µM), the “MIC Enterococcus faecium (GC 4557)” value ([2]; strain GC 4557) was 16 µg/mL (≈ 10.9 µM) and the “MIC Enterococcus avium (GC 4558)” value ([2]; strain GC 4558) was 16 µg/mL (≈ 10.9 µM). The “MIC Enterococcus faecalis (GC 6189)” value ([2]; strain GC 6189) was 16 µg/mL (≈ 10.9 µM), the “MIC Coagulase Negative Staphylococcus (GC 4547)” value ([3]; 5×10^5 CFU/mL) was 16 µg/mL (≈ 10.9 µM) and the “MIC Coagulase Negative Staphylococcus (GC 4548)” value ([3]; 5×10^5 CFU/mL) was 8 µg/mL (≈ 5.45 µM). For the same compound, the “MIC Coagulase Negative Staphylococcus (GC 4549)” value ([3]; 5×10^5 CFU/mL) was 8 µg/mL (≈ 5.45 µM), the “MIC Coagulase Negative Staphylococcus (GC 4551)” value ([3]; 5×10^5 CFU/mL) was 16 µg/mL (≈ 10.9 µM) and the “MIC Coagulase Negative Staphylococcus (GC 6257)” value ([3]; 5×10^5 CFU/mL) was 8 µg/mL (≈ 5.45 µM). The “MIC Staphylococcus aureus (ATCC 29213)” value ([3]; 5×10^5 CFU/mL) was 16 µg/mL (≈ 10.9 µM), the “MIC Staphylococcus aureus (GC 1131)” value ([3]; 5×10^5 CFU/mL) was 16 µg/mL (≈ 10.9 µM) and the “MIC Staphylococcus aureus (GC 3051)” value ([3]; 5×10^5 CFU/mL) was 32 µg/mL (≈ 21.8 µM). The “MIC Staphylococcus aureus (GC 3053)” value ([3]; 5×10^5 CFU/mL) was 16 µg/mL (≈ 10.9 µM), the “MIC Staphylococcus aureus (GC 4541)” value ([3]; 5×10^5 CFU/mL) was 16 µg/mL (≈ 10.9 µM) and the “MIC Staphylococcus aureus (GC 4542)” value ([3]; 5×10^5 CFU/mL) was 16 µg/mL (≈ 10.9 µM). The “MIC Staphylococcus aureus (GC 4544)” value ([3]; 5×10^5 CFU/mL) was 16 µg/mL (≈ 10.9 µM), the “MIC Staphylococcus aureus (GC 4545)” value ([3]; 5×10^5 CFU/mL) was 16 µg/mL (≈ 10.9 µM) and the “MIC Staphylococcus aureus-SMITH (GC 4543)” value ([3]; 5×10^5 CFU/mL) was 16 µg/mL (≈ 10.9 µM). For the same compound, the “MIC Staphylococcus haemolyticus (GC 4546)” value ([3]; 5×10^5 CFU/mL) was 16 µg/mL (≈ 10.9 µM), the “MIC Staphylococcus aureus (ATCC 29213)” value ([3]; strain ATCC 29213) was 16 µg/mL (≈ 10.9 µM) and the “MIC Staphylococcus aureus (GC 1131)” value ([3]; strain GC 1131) was 16 µg/mL (≈ 10.9 µM). The “MIC Staphylococcus aureus (GC 3051)” value ([3]; strain GC 3051) was 32 µg/mL (≈ 21.8 µM), the “MIC Staphylococcus aureus (GC 3053)” value ([3]; strain GC 3053) was 16 µg/mL (≈ 10.9 µM) and the “MIC Staphylococcus aureus (GC 4541)” value ([3]; strain GC 4541) was 16 µg/mL (≈ 10.9 µM). For the same compound, the “MIC Staphylococcus aureus (GC 4542)” value ([3]; strain GC 4542) was 16 µg/mL (≈ 10.9 µM), the “MIC Staphylococcus aureus-SMITH (GC 4543)” value ([3]; strain GC 4543) was 16 µg/mL (≈ 10.9 µM) and the “MIC Staphylococcus aureus (GC 4544)” value ([3]; strain GC 4544) was 16 µg/mL (≈ 10.9 µM). For the same compound, the “MIC Staphylococcus aureus (GC 4545)” value ([3]; strain GC 4545) was 16 µg/mL (≈ 10.9 µM), the “MIC Staphylococcus haemolyticus (GC 4546)” value ([3]; strain GC 4546) was 16 µg/mL (≈ 10.9 µM) and the “MIC Coagulase Negative Staphylococcus (GC 4547)” value ([3]; strain GC 4547) was 16 µg/mL (≈ 10.9 µM). For the same compound, the “MIC Coagulase Negative Staphylococcus (GC 4548)” value ([3]; strain GC 4548) was 8 µg/mL (≈ 5.45 µM), the “MIC Coagulase Negative Staphylococcus (GC 4549)” value ([3]; strain GC 4549) was 8 µg/mL (≈ 5.45 µM) and the “MIC Coagulase Negative Staphylococcus (GC 4551)” value ([3]; strain GC 4551) was 16 µg/mL (≈ 10.9 µM). For the same compound, the “MIC Coagulase Negative Staphylococcus (GC 6257)” value ([3]; strain GC 6257) was 8 µg/mL (≈ 5.45 µM), the “MIC Escherichia coli (ATCC 25922)” value ([4]; strain ATCC 25922) was over 64 µg/mL and the “MIC Escherichia coli (GC 4559)” value ([4]; strain GC 4559) was over 64 µg/mL. The “MIC Escherichi coli (GC 4560)” value ([4]; strain GC 4560) was 16 µg/mL (≈ 10.9 µM).
